Laboratory results taken from patent publication EP3436024B1, “3-BETA-METHOXY-PREG FOR USE IN THE TREATMENT OF TREATMENT RESISTANT DEPRESSION” (Mapreg, priority 2016, dated 2017).

Columns and labels:
[1] = tested on: Wistar Kyoto (WKY) rats; assay: Anxious-like behavior: activity in the central square of the open-field arena, WKY rats; type: in vivo, rat; conditions: acute, MAP4343 10 mg/kg s.c., fluoxetine 10 mg/kg i.p., ketamine 30 mg/kg i.p.
Protocol: (§1) After a 6-day period of acclimatization, all experimental groups received daily successive subcutaneous (250 µl per rat) and intraperitoneal (1 ml/kg) injections. WI rats received injection of vehicle (sesame oil + saline) while WKY rats were randomly assigned to […], as follow: KWY rats receiving only vehicle (sesame oil + saline) and WKY rats treated with MAP4343 (10 mg/kg, s.c.; rats received in parallel i.p. injections of saline), fluoxetine (10 mg/kg i.p., rats received in parallel s.c. injections of sesame oil) or ketamine (30 mg/kg, i.p.; rats received in parallel s.c. injections of sesame oil) (see Figure 3).
(§2) After, a 6-day period of acclimatization, the acute phase of treatment started for 4 days during behavioral tests were performed (Figure 3). All animals were injected 1h30 before the starting of behavioral test.
(§3) The animals were individually placed in the open field arena (OFA) (70 x 100 x 70 cm), with a central square (35 x 50 cm), located in a 50 lux illuminated room and videotaped during 3 min using a computerized system (VideoTrack V2.5, ViewPoint, Lyon, France).
(§4) OFA allows firstly the evaluation of total locomotor activity (LMA) thereby measuring the total distance travelled in the arena (in cm). Secondly, measurements of the activity in the center of the arena like (i) the number of entries in the center of arena and (ii) the total time spent in the center of arena (in sec) provide cues of anxiety-like behavior (Prut and Belzung, 2003). All these behavioral parameters were instantaneously measured automatically with the VideoTrack V2.5 software from the videos.

[2] = tested on: Wistar Kyoto (WKY) rats; assay: Elevated-plus maze (EPM), WKY rats; type: in vivo, rat; conditions: acute, fluoxetine 10 mg/kg, Fig. 5D
Protocol: as §1, §2
We used the elevated-plus maze (EPM) as an assay of anxiety-related behavior in rodents (Walf and Frye, 2007). Rats were initially placed in the center of the plus-maze, consisting of two open arms (50 x 10 cm) and two closed arms (50 x 10 cm enclosed by 40 cm walls), in a 50 lux illuminated room and videotaped during 5 min using a computerized system (VideoTrack V2.5, ViewPoint, Lyon, France). The time spent in the open versus closed arms was blindly measured by two independent experimenters from the recorded video, and the open arm-index was calculated as follow: time in the open arms (sec) / [time in open arms (sec) + time in closed arms (sec)].

[3] = tested on: Wistar Kyoto (WKY) rats; assay: Locomotor activity in the open-field arena, WKY rats; type: in vivo, rat; conditions: acute, fluoxetine 10 mg/kg i.p., ketamine 30 mg/kg i.p., 3 min, Fig. 5A
Protocol: as §1, §2, §3, §4

[4] = tested on: Wistar Kyoto (WKY) rats; assay: Forced swimming test (FST), WKY rats; type: in vivo, rat; conditions: acute administration (4 days), MAP4343 10 mg/kg, fluoxetine 10 mg/kg i.p., ketamine 30 mg/kg i.p., Fig. 6C
Protocol: 3B-methoxy-PREG (also referred to as "MAP4343" in Example 4) was dissolved in sesame oil by sonication using a Sonifer-450 (Branson Ultrasonics Corporation, Danbury, USA) during 1 cycle of 5 pulses in sesame oil. Fluoxetine (Biotrend, Köln, Germany) and Ketamine (Sigma-Aldrich, St-Quentin Fallvier, France) were dissolved in sterile saline solution (NaCl 0.9%). The drug formulations were prepared freshly each day of treatment. MAP4343 was administered subcutaneously (ranging of 1-15 mg/Kg/day) while fluoxetine and ketamine were injected intraperitonealy (10 mg/Kg/day and 30 mg/Kg/day, respectively).
After a 6-day period of acclimatization, all experimental groups received daily successive subcutaneous (250 µl per rat) and intraperitoneal (1 ml/kg) injections. […]
Rats were submitted to the forced swimming test (FST), according the procedure initially described by (Detke et al., 1995) and slightly modified by (Bianchi et al., 2002). […] The pre-test and test sessions were recorded using a video camera placed above the cylinder for subsequent behavioral analysis. The immobility time (in sec) was blindly measured by two independent experimenters from recorded videos. […]
The effects of a dose-ranging administration of MAP4343 were tested in WI and WKY rats on their immobility time measured in FST.

[5] = Body weight of treated WKY rats; type: in vivo; conditions: fluoxetine 10 mg/kg i.p., 4 days

SMILES: CNCCC(Oc1ccc(C(F)(F)F)cc1)c1ccccc1 (centres unmarked) [fluoxetine]
- number of entries in the central square of OFA, change as compared to WKY receiving only vehicle ([1]; Fig. 5B): failed to significantly modify
- time spent in the center of open-field, change as compared to WKY receiving vehicle ([1]; Fig. 5C): did not induce any significant change
- open-arm (OA) index, change when compared to WKY receiving vehicle alone ([2]; MAP4343 10 mg/kg s.c., ketamine 30 mg/kg i.p.): -84%
- open-arm (OA) index, change when compared to MAP4343-treated WKY [2]: -95%
- locomotor activity (total distance travelled in the open-field arena), change as compared to WKY receiving vehicle ([3]; MAP4343 10 mg/kg s.c.): -45%
- locomotor activity (total distance travelled in the open-field arena), change as compared to MAP4343-treated WKY [3]: -52%
- immobility time measured in FST, change when compared to WKY rats receiving vehicle alone [4]: +29%
- body weight [5]: reduced body weight
